Measured values from patent US20160038532A1, “Treatment of Multiple Sclerosis With Combination of Laquinimod and Glatiramer Acetate” (TEVA PHARMACEUTICAL INDUSTRIES, LTD., priority 2011, published 2016).
Where “and” joins values, the source holds several entries; their conditions need not be identical. Equal values may be shown once. Marks after values point to notes of the source that are not given here.

Legend:
[1] = Weight of EAE mice (Example 2.1); assay type: in vivo, C57B1/6 mice; settings: GA-blocking alone
From the text: FIG. 1 is a graphical representation of the experimental results from Example 2.1.
The differences were statistically significant (by MANOVA). […] However, when the first signs appeared the mice started to lose weight. On days 16 and 24 the weight of control mice was statistically different from almost all the others (Table 4, FIG. 1B).

MSCH-induced EAE = MSCH-induced EAE in CSJL mice (Example 2.7); assay type: in vivo, CSJL/F1 mice; settings: GA blocking 0.5 mg/kg (sub-optimal dose), with encephalitogen
MOG-induced EAE [2] = assay: MOG-induced EAE, repeat study (Example 2.3); assay type: in vivo, C57B1/6 mice; settings: GA-blocking 12.5 mg/kg with inoculum day 0
Experimental: 120 female C57B1/6 mice 8-10 weeks old were used the study. Mice were allocated randomly into 8 groups according to Table 7 below.
24 mg MOG was diluted in 8 ml PBS (3 mg/ml, stock solution). Groups 1, 3, 5 and 7: 4 ml of stock solution was diluted 1:1 with PBS. […] This solution was mixed 1:1 with the stock solution of MOG.
The high dose LAQ (25 mg/10 ml/kg) solution (150 mg in 60 ml DDW) was prepared once weekly and stored in the amber glass at room temperature. The lower LAQ doses were prepared daily. For the dose of 5 mg/kg, 1.6 ml of stock solution were added to 6.4 ml DDW. For the dose 1 mg/kg, […] of the previous solution (intermediate dose) were added to 5.2 ml DDW. The compound was administered by gavage once daily during the hole experiment (30 days) at a volume of 0.2 ml/mouse.
The mice were observed daily from the 10th day post-EAE induction (first injection of MOG) and the EAE clinical signs were scored according to the grades described in the 2 above.

MOG-induced EAE [3] = assay: Summary of studies of GA-blocking + laquinimod in MOG-induced EAE (Examples 2.1-2.3); assay type: in vivo, mice; settings: GA-blocking alone
Experimental: FIG. 4 is a graphical representation summarizing experimental results from Examples 2.1-2.3.
At higher doses (5 and 25 mg/kg) laquinimod provides an additive effect over GA-blocking as summarized in Table 9 and shown on FIGS. 4A and 4B.

MOG-induced EAE [4] = assay: MOG-induced EAE with GA blocking and s.c. daily GA (Example 2.5); assay type: in vivo, C57B1 mice
Experimental: The objective of this study was to test the suppressive effect of laquinimod alone and in combination with Glatiramer acetate in the EAE model in C57B1 mice. […] Laquinimod was administered orally at dose levels of 2.5 and 5.0 mg/kg.
EAE was induced in the mice by the injection of the encephalitogenic emulsion (MOG/CFA). Laquinimod was administered orally for 30 consecutive days.
EAE induction EAE was induced by injecting the encephalitogenic mixture (emulsion) consisting of MOG ([…]). A 0.2 ml emulsion was injected subcutaneously into the flanks of the mice. Pertussis toxin was injected intraperitoneally on the day of induction and 48 hours later (total amount will be 0.150+0.150=0.300 μg/mouse in 0.2 ml dosage volume).
Groups 1, 3-8: 45.9 mg MOG was diluted in […] Normal Saline (3.0 mg/ml MOG stock solution). 12.5 mL of 3.0 mg/ml stock solution was diluted in 12.5 mL Normal Saline to yield 1.5 mg MOG/mL. […] The emulsification was made from equal parts of oil and liquid portions (1:1) in two syringes connected to each other with Leur lock, transferred to insulin syringe and 0.2 ml was injected the right flank of each mouse. The dose of the MOG in all the groups (1 to 8) was […].
The test concentrations of laquinimod were prepared in purified water. For high dose (25.0 mg/kg) 2.5 mg/mL stock solution was prepared (group 8). The 2.5 mg/mL stock solution was diluted 1:5 and 1:10 to yield 0.5 and 0.25 mg/mL for dose levels of 5.0 mg/kg for groups 5 and 7 and 2.5 mg/kg respectively for groups #4 and 6. Laquinimod was administered daily from the initiation of the study, to the respective groups by gavage at a volume of 0.2 ml/mouse.
Every day one tube was thawed and brought to RT.
Clinical signs Scoring of EAE clinical signs was started from Day 10 post EAE induction and was continued daily until Day 30. The clinical signs were recorded according to a grading system described in the Table 2 above.
All mice having scores of 1 and above were considered sick. When the first clinical sign appeared all mice were given food soaked in water, which was spread on different places on the bedding of the cages. An animal which continued to have score 5 for three days was killed on humane grounds and given score 6 on the next day. For calculation purposes, the score of animals that were sacrificed or died (6) was carried forward.

[5] = GA blocking 12.5 mg/kg once with encephalitogen
[6] = GA blocking 12.5 mg/kg once with encephalitogen, listed as GA blocking

## L-glutamic acid polymer with L-alanine, L-lysine and L-tyrosine, acetate (salt) [GA]
[1]
  weight, day 5 after induction: 17.9
  weight, day 10 after induction: 19.3
  weight, day 16 after induction: 19.9**
  weight, day 24 after induction: 18.0*
  weight, day 30 after induction: 18.2
MSCH-induced EAE
  % Inhibition 1 (incidence): 30.0%
  GMS % Inhibition 3: 61.9%
  GMS value: 1.6 ± 1.5
  Incidence: 7/10
  MMS % Inhibition 2: 42.0%
  MMS value: 2.9 ± 2.1
  Mean Duration: 5.8 ± 4.5 days
  Mean Onset: 17.0 ± 4.9 days
MOG-induced EAE [2]
  % inhibition compared to Control (GMS): 78.9%
  Group Mean Score: 0.52***
  Incidence: 5/15
  Mean Disease Duration: 3.7*** days
  Mean Maximal Score: 0.97***
  Mean Onset: 25.6*** days
MOG-induced EAE [3]
  Mean percent inhibition, Examples 2.1-2.3 summarized: 67.6%
MOG-induced EAE [4]; GA 250 mg/kg s.c. daily 10 d
  % Inhibition 1 (incidence): 100.0%
  GMS % Inhibition 3: 4.8%
  GMS value: 2.0 ± 1.0
  Incidence: 13/15
  MMS % Inhibition 2: 2.9%
  MMS value: 3.3 ± 1.4
  Mean Duration: 12.1 ± 5.3 days
  Mean Onset: 18.1 ± 5.5 days
MOG-induced EAE [4]; [5]
  % Inhibition 1 (incidence): 57.1%
  GMS value: 0.7 ± 1.0
  Incidence: 6/15
  MMS % Inhibition 2: 61.8%
MOG-induced EAE [4]; [6]
  GMS % Inhibition 3: 66.7%
  MMS value: 1.3 and 1.3 ± 1.8
  Mean Duration: 12.1 days and 12.1 ± 5.3 days
  Mean Onset: 26.1 ± 7.0 days
MOG-induced EAE [4]; GA blocking 12.5 mg/kg once with encephalitogen, listed as GA-Block
  GMS % Inhibition 3: (66.7) %
